Results taken from patent publication US20230080054A1 (ILDONG PHARMACEUTICAL CO., LTD., priority 2021, published 2023).

Legend:
[1] = tested on: platelet-rich plasma (PRP); assay: Recalcification time of rat platelet-rich plasma; details: 30 μM, vs 2% DMSO control
Procedure: Example 5: Recalcification Time
(§1) 1. Materials and Instruments
Isoflurane (Hana Pharm, cat. #9008), Isotonic Sodium Chloride Injection (Daihan Pharm, cat. #331), Citrate-dextrose solution (Sigma-Aldrich, cat. #C3821), Calcium chloride solution (Sigma-Aldrich, cat. #21115), 22G Syringe 10 mL (Koreavaccine), Dimethyl sulfoxide (Sigma-Aldrich, cat. #D5879), Apixaban (AK scientific, cat. #X1060), 96 Well Cell Culture Plates (SPL Life Sciences, cat. #30096), Synergy H4 Hybrid Microplate Reader (BioTek), Combi R515 Multi-purpose Centrifuge (Hanil Scientific), BS-06 Shaking & Heating Baths (JEIO TECH), and PST-60HL-4 Plate Shaker-Thermostat (Bio-San)
Seven-week-old male SD Rat (ORIENT BIO.) were maintained under controlled conditions of temperature (22±2° C.) and 12-h light/12-h dark cycle. Rats were housed in the pathogen-free facility of the Laboratory Animal Research Center in Ildong Pharmaceutical Co. Ltd. All procedures on animals were conducted in accordance with the relevant national regulatory guidelines and individual experiments approved by the Ildong Pharmaceutical Co. Ltd., Institutional Animal Care and Use Committee (IACUC) (approval No.: A2106-3, 2108-4).
The ability of test compounds to interfere with plasma coagulation, in the presence of platelets, was analyzing by measuring the recalcification time of rat plasma. The blood of animals was collected into 15 mL tubes containing Citrate-dextrose solution (9:1 v/v) before performing the assays. For recalcification time, platelet-rich plasma (PRP) samples were obtained by centrifugation at 360×g for 10 minutes. And the PRP were preincubated for 5 minutes (37° C.). In a 96 well microplate, test compounds (2 μL) were treated in 98 μL of platelet rich plasma. After mixing with a pipette, it was incubated at 37° C. for 15 minutes. The reaction was started by addition of 200 μL of pre-warmed CaCl2) (16 mM). Immediately, put the microplate in a microplate reader and the signals were measured by the following steps.
(1) 405 nm wavelength absorbance signals were recorded in every 10 seconds at 37° C.
(2) Basal absorbance signals were recorded for 0 second.
The signal variance of each of the test compounds was obtained by the following step.
(1) Background signals (t=O) were subtracted from recording values, and the resulting values were converted to change values. The values at 0 second were set to be zero.
The retardation time of test compound were calculated by the following formula:
Retardation time (sec)=[log EC50 (test sample)−log EC50 (DMSO control)]
As described above, a DMSO control group is a group to which 2% DMSO was treated.
The assay result is shown in Table 5, where compounds (30 μM) having less than 20 seconds of retardation time are marked by ‘C’; the compounds (30 μM) having retardation time of 20 seconds or more to less than 50 seconds are marked by ‘B’; and the compounds (30 μM) having retardation time of 50 seconds or more are marked by ‘A’.

human ANO6 = molecular target: T1, human ANO6 (Homo sapiens, UniProt Q4KMQ2); assay: LACT C2 assay (phosphatidylserine scramblase function assay); type: cell-based; details: FRT cells expressing human ANO6, 10 μM ionomycin; for inhibition at 0.1 µM: test compound 100 nM, read-out: Inhibition Level 100 nM
T1 construct: expressed in transfected cells
T1 sequence (Q4KMQ2 1-931 isoform Q4KMQ2-2): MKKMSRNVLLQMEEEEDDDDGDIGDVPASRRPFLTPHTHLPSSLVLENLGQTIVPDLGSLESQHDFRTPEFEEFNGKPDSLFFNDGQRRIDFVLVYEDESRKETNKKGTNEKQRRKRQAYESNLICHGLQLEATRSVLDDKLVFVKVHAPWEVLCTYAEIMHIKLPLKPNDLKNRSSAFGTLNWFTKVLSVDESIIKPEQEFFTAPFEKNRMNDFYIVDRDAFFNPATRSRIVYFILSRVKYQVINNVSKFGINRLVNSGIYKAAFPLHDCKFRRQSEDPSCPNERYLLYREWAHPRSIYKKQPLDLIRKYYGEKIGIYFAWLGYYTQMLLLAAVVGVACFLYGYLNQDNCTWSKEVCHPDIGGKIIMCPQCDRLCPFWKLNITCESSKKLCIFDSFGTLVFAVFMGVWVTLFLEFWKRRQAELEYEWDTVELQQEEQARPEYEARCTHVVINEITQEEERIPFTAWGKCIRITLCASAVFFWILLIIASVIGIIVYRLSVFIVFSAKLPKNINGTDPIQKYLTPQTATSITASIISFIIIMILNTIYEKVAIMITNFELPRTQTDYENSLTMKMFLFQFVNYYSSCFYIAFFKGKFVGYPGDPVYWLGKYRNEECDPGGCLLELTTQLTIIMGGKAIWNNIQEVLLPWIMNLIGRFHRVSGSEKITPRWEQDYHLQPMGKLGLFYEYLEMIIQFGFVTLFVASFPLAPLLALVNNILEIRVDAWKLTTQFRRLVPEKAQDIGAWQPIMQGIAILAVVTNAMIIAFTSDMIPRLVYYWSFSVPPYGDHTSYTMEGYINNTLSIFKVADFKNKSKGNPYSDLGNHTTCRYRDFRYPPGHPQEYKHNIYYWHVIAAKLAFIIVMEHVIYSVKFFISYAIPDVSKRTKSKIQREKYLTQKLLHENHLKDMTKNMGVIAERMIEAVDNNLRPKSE
How it was run: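 FRT cells stably expressing human ANO6 were pretreated with compound (1% DMSO) for 10 min, then stimulated with 10 μM ionomycin for 10 min. Surface phosphatidylserine was stained with 500 nM Lact-C2-GFP and quantified by imaging. Inhibition was scaled between unstimulated (100%) and ionomycin-only (0%) controls, averaged over triplicates.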

citrated human blood = assay: NATEM (ROTEM thromboelastometry, blood clot formation); details: 100 μM, 2% v/v DMSO, 15 min preincubation
Procedure: as §1
Star-TEM reagent (TEM International GmbH, cat. #000503-01), Dimethyl sulfoxide (Sigma-Aldrich, cat. #D2438), Cleancle normal saline (JW Pharm), and ROTEM® delta system (TEM International GmbH).
Human blood research was experimented after approval from the Yonsei University Institutional Review Board (IRB) in accordance with the Life Ethics and Safety Act.
Blood samples for NATEM were kept at room temperature, and all NATEM analyses were performed at 37° C. NATEM was carried out using 300 μL of citrated human blood preincubating with test compounds (100 μM, 2% v/v DMSO) for 15 minutes in cuvette and […] with Star-TEM reagent according to the manufacturer's manual (ROTEM; Tem International GmbH, Munich, Germany). After addition of the star-TEM reagent, cuvettes were measured by ROTEM® delta system. Blood clot formation was evaluated.
The obtained parameters were time to clot initiation (Clotting Time, CT), time to clot formation, α angle for clot growth kinetics (initial rate of fibrin polymerization), amplitude (firmness) at 10 minutes, maximum clot firmness, and maximum lysis.

O=C(N[C@@H]1C[C@H]1c1ccccc1)c1cccc(Nc2ccc(-c3ccccn3)cc2)c1 [Compound 155, N-((1R,2S)-2-phenylcyclopropyl)-3-((4-(pyridin-2-yl)phenyl)amino)benzamide]
Inhibition Level (retardation time, recalcification time) [1]: A (the compounds (30 μM) having retardation time of 50 seconds or more)
inhibition at 0.1 µM (human ANO6): ≥ 60%
inhibition at 1 µM (human ANO6; test compound 1 μM, read-out: Inhibition Level 1 μM): ≥ 60%
A10, amplitude (firmness) at 10 minutes (citrated human blood): 45 mm
CFT, clot formation time (citrated human blood): 168 s
CT, clotting time (citrated human blood): 616 s
MCF, maximum clot firmness (citrated human blood): 57 mm
ML, maximum lysis (citrated human blood): 2%
α, α-angle (citrated human blood): 59 °

O=C(N[C@@H]1C[C@H]1c1ccccc1)c1cccc(Nc2ccc(-c3ccncn3)cc2)c1 [Compound 174, N-((1R,2S)-2-phenylcyclopropyl)-3-((4-(pyrimidin-4-yl)phenyl)amino)benzamide]
Inhibition Level (retardation time, recalcification time) [1]: B (the compounds (30 μM) having retardation time of 20 seconds or more to less than 50 seconds)
inhibition at 0.1 µM (human ANO6): ≥ 60%
A10, amplitude (firmness) at 10 minutes (citrated human blood): 45 mm
CFT, clot formation time (citrated human blood): 180 s
CT, clotting time (citrated human blood): 665 s
MCF, maximum clot firmness (citrated human blood): 56 mm
ML, maximum lysis (citrated human blood): 2%
α, α-angle (citrated human blood): 57 °
